Counter-ions that a name gives are not always drawn.
Columns and labels:
[1] = target: T1, type II phosphodiesterase (Rattus norvegicus, UniProt Q01062); assay: Phosphodiesterase inhibition activity (in vitro), Type II; format: biochemical; conditions: Type II phosphodiesterase column
T1 construct: purified from rat heart muscle cells; from tissue; host or cells: rat heart, soluble fraction, Q Sepharose
T1 sequence (Q01062 1-928): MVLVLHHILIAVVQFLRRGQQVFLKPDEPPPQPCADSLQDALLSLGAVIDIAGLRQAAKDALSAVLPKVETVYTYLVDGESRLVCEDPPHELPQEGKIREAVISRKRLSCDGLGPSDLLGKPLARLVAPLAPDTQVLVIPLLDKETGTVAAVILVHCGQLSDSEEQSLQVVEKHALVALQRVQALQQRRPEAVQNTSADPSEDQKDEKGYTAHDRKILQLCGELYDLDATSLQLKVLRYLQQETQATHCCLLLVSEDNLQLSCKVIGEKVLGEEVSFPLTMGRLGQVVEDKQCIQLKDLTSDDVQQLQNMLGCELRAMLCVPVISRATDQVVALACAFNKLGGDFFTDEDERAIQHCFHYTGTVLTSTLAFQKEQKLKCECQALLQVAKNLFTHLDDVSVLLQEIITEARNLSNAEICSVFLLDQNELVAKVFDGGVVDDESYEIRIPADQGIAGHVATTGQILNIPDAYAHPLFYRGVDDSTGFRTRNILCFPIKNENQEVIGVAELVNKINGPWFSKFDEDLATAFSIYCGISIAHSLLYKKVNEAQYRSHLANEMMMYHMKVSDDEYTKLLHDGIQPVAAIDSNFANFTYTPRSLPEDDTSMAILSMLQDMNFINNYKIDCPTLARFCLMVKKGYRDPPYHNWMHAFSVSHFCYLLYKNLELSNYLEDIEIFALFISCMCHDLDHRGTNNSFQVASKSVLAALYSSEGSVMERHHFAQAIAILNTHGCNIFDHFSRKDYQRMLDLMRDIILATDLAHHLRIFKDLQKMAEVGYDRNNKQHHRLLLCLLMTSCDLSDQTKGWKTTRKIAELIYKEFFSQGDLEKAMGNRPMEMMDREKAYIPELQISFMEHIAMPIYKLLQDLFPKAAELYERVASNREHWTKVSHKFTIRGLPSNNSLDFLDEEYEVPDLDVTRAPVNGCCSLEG
Source text: (§1) (A) In order to evaluate selectivity of the compounds of the present invention for type IV phosphodiesterase, types I, II, III and V phosphodiesterase isozymes were purified in the following manner.
(§2) 1) Solutions containing various phosphodiesterase (types I, II and III) isozymes were purified from rat heart muscle cells in the following manner. Under ether anesthesia, Wistar rat was subjected to thoracotomy to excise the heart. After removing blood by perfusion with physiological saline supplemented with heparin (1 unit/ml), the heart was finely chopped with scissors. This was suspended in buffer A (20 mM Bis-Tris, 5 mM dithioerythritol, 2 mM EGTA and 50 mM sodium acetate, pH 6.5) containing a protease inhibitor (50 μM phenyl-methyl-sulfonyl-fluoride, 5 μM pepstatin A, 40 μM leupeptin, 20 μM aprotinin or 2 mM benzamidine) and then the cells were disrupted using polytron and sonicator and subjected to ultracentrifugation (4° C., 100,000×g, 60 minutes) to give a soluble fraction.
(§3) 2) Solutions containing various phosphodiesterase isozymes were obtained from the thus obtained soluble fraction in the following manner. The thus, obtained soluble fraction was applied to a column of 1.6×10.0 cm packed with Q Sepharose which had been equilibrated with buffer A. Next, said column was washed with 300 ml of buffer A to remove non-absorbed protein. Phosphodiesterase was eluted with 200 ml of buffer A having 0.05 to 1.25M linear gradient of sodium acetate to collect about 40 fractions each containing 5.0 ml eluate. Each fraction was checked for cAMP- and cGMP-metabolizing phosphodiesterase activities. Of these fractions, a fraction having only cAMP-metabolizing activity and showing disappearance of the metabolizing activity by 0.1 μM cilostamide (a type III phosphodiesterase selective inhibitor) was used as the type III phosphodiesterase. […] These fractions were separately collected to be used as phosphodiesterase (types I, II and III) stock solutions for the examination of selectivity. p1 3) A solution containing type V phosphodiesterase was prepared from peripheral blood of a healthy person in the following manner. A 200 ml portion of physiological saline supplemented with dextran (3%) was added to 500 ml of heparinized peripheral blood and incubated at 37° C. for 40 minutes to effect precipitation of erythrocytes. The supernatant fluid after precipitation of erythrocytes was recovered and centrifuged once, and the resulting precipitate was suspended in buffer B (140 mM NaCl, 5 mM KCl, 5 mm glucose and 10 mM HEPES, pH 7.4), overlaid on a solution for density gradient centrifugation use (Ficoll solution) and then centrifuged at room temperature for 40 minutes at 450×g, thereby separating monocyte fraction and granulocyte fraction. The granulocyte fraction was washed once with buffer C (140 mM NaCl, 5 mM KCl, 1 mM CaCl2, 1 mM MgCl2, 5 mM glucose and 10 mM HEPES, pH 7.4) and suspended in buffer D (20 mM Bis-Tris, 5 mM dithioerythritol, 2 mM EGTA and 50 mM sodium acetate, pH 6.5) containing a protease inhibitor (40 μM leupeptin, 5 μM pepstatin A, 20 μM aprotinin, 50 μM phenyl-methyl-sulfonyl-fluoride or 2 mM benzamidine) and then the cells were disrupted using polytron and sonicator and subjected to ultracentrifugation (4° C., 100,000×g, 60 minutes) to give a soluble fraction.
(§4) (B) Inhibitory activities were measured using the thus obtained stock solutions of various phosphodiesterase isozymes.
(§5) 1) A predetermined amount of each compound to be tested was subjected to 10 minutes of reaction at 30° C. in a reaction mixture containing 40 mM Tris-HCl (pH 8.0), 5 mM MgCl2, 4 mM 2-mercaptoethanol, 10 μM rolipram (a type IV phosphodiesterase selective inhibitor), 1 μM cAMP, 10 nM ^3 H-cAMP (in the case of type V phosphodiesterase, 1 μM cAMP and 10 nM ^3 H-cAMP are replaced by 1 μM cGMP and 100 nM ^3 H-cGMP) and each of the isozyme stock solutions. […]

[2] = target: type III phosphodiesterase; assay: Phosphodiesterase inhibition activity (in vitro), Type III; format: biochemical, rat
Source text: as §1, §2, §3, §4, §5

Compound | IC50 [1] | IC50 [2]
CCn1c(=O)cc(-c2cccc(Cl)c2)c2cccnc21 [Example 15, 4-(3-Chlorophenyl)-1-ethyl-1,8-naphthyridin-2(1H)-one] | 20.8 µM | 50.3 µM
Cc1cc(C)c2c(-c3cccc(Cl)c3)cc(=O)n(C)c2n1 [Example 24, 4-(3-chlorophenyl)-1,5,7-trimethyl-1,8-naphthyridin-2(1H)-one] | 51.8 µM | 21.5 µM
CCc1cc(C)c2c(-c3ccccc3)cc(=O)n(C)c2n1 [Example 26, 7-Ethyl-1,5-dimethyl-4-phenyl-1,8-naphthyridin-2(1H)-one] | 30 µM | 56.2 µM
CCc1cc(C)c2c(-c3cccc(Cl)c3)cc(=O)n(C)c2n1 [Example 27, 4-(3-Chlorophenyl)-7-ethyl-1,5-dimethyl-1,8-naphthyridin-2(1H)-one] | 25.6 µM | 15.5 µM
CCn1c(=O)cc(-c2cccc(Cl)c2)c2c(C)cc(C)nc21 [Example 29, 4-(3-Chlorophenyl)-1-ethyl-5,7-dimethyl-1,8-naphthyridin-2(1H)-one] | 15.5 µM | 14.3 µM
CCn1c(=O)cc(-c2cccc(Br)c2)c2c(C)cc(C)nc21 [Example 30, 4-(3-Bromophenyl)-1-ethyl-5,7-dimethyl-1,8-naphthyridin-2(1H)-one] | 10.5 µM | 10.9 µM
CCc1cc(C)c2c(-c3cccc(Br)c3)cc(=O)n(CC)c2n1 [Example 31, 4-(3-bromophenyl)-1,7-diethyl-5-methyl-1,8-naphthyridin-2(1H)-one] | > 30 µM | > 30 µM
CCCn1c(=O)cc(-c2cccc(Br)c2)c2c(C)cc(CC)nc21 [Example 33, 4-(3-Bromophenyl)-7-ethyl-5-methyl-1-propyl-1,8-naphthyridin-2(1H)-one] | 35.4 µM | 17.7 µM
CCc1cc(C)c2c(-c3cccc(Cl)c3)cc(=O)n(C3CC3)c2n1 [Example 35, 4-(3-Chlorophenyl)-1-cyclopropyl-7-ethyl-5-methyl-1,8-naphthyridin-2(1H)-on] | 22.3 µM | 34.4 µM
CCn1c(=O)cc(-c2ccccc2)c2c(C)cc(C)nc21 [Example 38, 1-Ethyl-5,7-dimethyl-4-phenyl-1,8-naphthyridin-2(1H)-one] | 26.1 µM | > 30 µM
CCc1cc(C)c2c(-c3ccccc3)cc(=O)n(CC)c2n1 [Example 40, 1,7-Diethyl-5-methyl-4-phenyl-1,8-naphthyridin-2(1H)-one] | 20.5 µM | 32.3 µM
CCc1cc(C)c2c(-c3cccc(Cl)c3)cc(=S)n(C)c2n1 [Example 43, 4-(3-chlorophenyl)-7-ethyl-1,5-dimethyl-1,8-naphthyridine-2(1H)-thione] | > 30 µM | > 30 µM
CCn1c(=O)cc(C2CCCCC2)c2cccnc21 [Example 46, 4-cyclohexyl-1-ethyl-1,8-naphthyridin-2(1H)-one 0.45 hydrochloride 0.25 hydrate] | > 30 µM | > 30 µM
CCc1cc(C)c2c(C3CCCCC3)cc(=O)n(CC)c2n1 [Example 49, 4-cyclohexyl-1,7-diethyl-5-methyl-1,8-naphthyridin-2(1H)-one] | 22.8 µM | 27.3 µM
